Columns and labels:
hERG K+ channel = hERG K+ channel (Homo sapiens (Human), UniProt Q12809); assay: hERG assay, IonWorks patch clamp electrophysiology; format: cell-based; settings: Chinese Hamster Lung cell line stably expressing hERG, IonWorks Quattro, max 11 uM
Method: Compounds of the invention were tested for inhibition of the human ether a go-go related gene (hERG) K^+ channel using IonWorks patch clamp electrophysiology. 8 Point concentration-response curves were generated on two occasions using 3-fold serial dilutions from the maximum assay concentration (11 uM). Electrophysiological recordings were made from a Chinese Hamster Lung cell line stably expressing the full length hERG channel. Single cell ion currents were measured in the perforated patch clamp configuration (100 ug/mL amphoterocin) at room temperature using an IonWorks Quattro instrument. The internal solution contained 140 mM KCl, 1 mM MgCl2, 1 mM EGTA and 20 mM HEPES and was buffered to pH 7.3. The external solution contained 138 mM NaCl, 2.7 mM KCl, 0.9 mM CaCl2, 0.5 mM MgCl2, 8 mM Na2HPO4 and 1.5 mM KH2PO4, and was buffered to pH 7.3. Cells were clamped at a holding potential of […] for 30 s and then stepped to +40 mV for 1 s. This was followed by a hyperpolarising step of 1 s to […] to evoke the hERG tail current. This sequence was repeated 5 times at a frequency of 0.25 Hz. Currents were measured from the tail step at the 5th pulse, and referenced to the holding current. […] A minimum of 17 cells were required for each pIC50 curve fit.

human SSAO = human SSAO (Homo sapiens (Human), UniProt Q16853); assay: SSAO enzyme inhibition assay (benzylamine substrate; hydrogen peroxide/HRP or aldehyde detection); format: biochemical; settings: purified recombinantly expressed human SSAO, RT
Method: All primary assays were performed at RT. with purified recombinantly expressed human SSAO. Enzyme was prepared essentially as described in Öhman et al. (Protein Expression and Purification 46 (2006) 321-331). In addition, secondary- and selectivity assays were performed using SSAO prepared from various tissues or purified rat recombinant SSAO. The enzyme activity was assayed with benzylamine as substrate by measuring either benzaldehyde production, using ^14C-labeled substrate, or by utilizing the production of hydrogen peroxide in a horseradish peroxidase (HRP) coupled reaction. Briefly, test compounds were dissolved in dimethyl sulfoxide (DMSO) to a concentration of 10 mM. Dose-response measurements were assayed by either creating 1:10 serial dilutions in DMSO to produce a 7 point curve or by making 1:3 serial dilutions in DMSO to produce 11 point curves. The top concentrations were adjusted depending on the potency of the compounds and subsequent dilution in reaction buffer yielded a final DMSO concentration ≦2%.
In a horseradish peroxidase (HRP) coupled reaction, hydrogen peroxide oxidation of 10-acetyl-3,7-dihydroxyphenoxazine produced resorufin, which is a highly fluorescent compound (Zhout and Panchuk-Voloshina. Analytical Biochemistry 253 (1997) 169-174; Amplex® Red Hydrogen Peroxide/peroxidase Assay kit, Invitrogen A22188). Enzyme and compounds in 50 mM sodium phosphate, pH 7.4 were set to pre-incubate in flat-bottomed microtiter plates for approximately 15 min before initiating the reaction by addition of a mixture of HRP, benzylamine and Amplex reagent. Benzylamine concentration was fixed at a concentration corresponding to the Michaelis constant, determined using standard procedures. Fluorescence intensity was then measured at several time points during 1-2 h, exciting at 544 nm and reading the emission at 590 nm. For the human SSAO assay final concentrations of the reagents in the assay wells were: SSAO enzyme 1 ug/ml, benzylamine 100 uM, Amplex reagent 20 uM, HRP 0.1 U/mL and varying concentrations of test compound. The inhibition was measured as % decrease of the signal compared to a control without inhibitor (only diluted DMSO). The background signal from a sample containing no SSAO enzyme was subtracted from all data points. Data was fitted to a four parameter logistic model and IC50 values were calculated using the GraphPad Prism 4 or XLfit 4 programs.
SSAO activity was assayed using […] benzylamine and analysed by measuring radioactive benzaldehyde. In a white 96-well optiplate (Packard), 20 uL of diluted test compound was pre-incubated at room temperature with 20 uL SSAO enzyme for approximately 15 min with continuous agitation. All dilutions were made with PBS. The reaction was initiated by adding 20 uL of the benzylamine substrate solution containing Benzylamine hydrochloride (CFA589, GE Healthcare). The plate was incubated for 1 h as above after which the reaction was stopped by acidification (10 uL 1M aq HCl). Then 90 uL Micro Scint-E solution (Perkin-Elmer) was added to each well and the plate was continuously mixed for 15 min. Phase separation occurred instantly and activity was read in a Topcount scintillation counter (Perkin-Elmer). In the final reaction well, the human recombinant SSAO concentration was 10 ug/ml. In order to optimize sensitivity, the substrate concentration was decreased as compared to the HRP coupled assay in order to get a higher fraction of radioactive product. In the human SSAO assay, benzylamine concentration was 40 uM (0.2 uCi/mL). Data was analysed as above.

hERG K+ channel, sequence (Q12809 whole entry): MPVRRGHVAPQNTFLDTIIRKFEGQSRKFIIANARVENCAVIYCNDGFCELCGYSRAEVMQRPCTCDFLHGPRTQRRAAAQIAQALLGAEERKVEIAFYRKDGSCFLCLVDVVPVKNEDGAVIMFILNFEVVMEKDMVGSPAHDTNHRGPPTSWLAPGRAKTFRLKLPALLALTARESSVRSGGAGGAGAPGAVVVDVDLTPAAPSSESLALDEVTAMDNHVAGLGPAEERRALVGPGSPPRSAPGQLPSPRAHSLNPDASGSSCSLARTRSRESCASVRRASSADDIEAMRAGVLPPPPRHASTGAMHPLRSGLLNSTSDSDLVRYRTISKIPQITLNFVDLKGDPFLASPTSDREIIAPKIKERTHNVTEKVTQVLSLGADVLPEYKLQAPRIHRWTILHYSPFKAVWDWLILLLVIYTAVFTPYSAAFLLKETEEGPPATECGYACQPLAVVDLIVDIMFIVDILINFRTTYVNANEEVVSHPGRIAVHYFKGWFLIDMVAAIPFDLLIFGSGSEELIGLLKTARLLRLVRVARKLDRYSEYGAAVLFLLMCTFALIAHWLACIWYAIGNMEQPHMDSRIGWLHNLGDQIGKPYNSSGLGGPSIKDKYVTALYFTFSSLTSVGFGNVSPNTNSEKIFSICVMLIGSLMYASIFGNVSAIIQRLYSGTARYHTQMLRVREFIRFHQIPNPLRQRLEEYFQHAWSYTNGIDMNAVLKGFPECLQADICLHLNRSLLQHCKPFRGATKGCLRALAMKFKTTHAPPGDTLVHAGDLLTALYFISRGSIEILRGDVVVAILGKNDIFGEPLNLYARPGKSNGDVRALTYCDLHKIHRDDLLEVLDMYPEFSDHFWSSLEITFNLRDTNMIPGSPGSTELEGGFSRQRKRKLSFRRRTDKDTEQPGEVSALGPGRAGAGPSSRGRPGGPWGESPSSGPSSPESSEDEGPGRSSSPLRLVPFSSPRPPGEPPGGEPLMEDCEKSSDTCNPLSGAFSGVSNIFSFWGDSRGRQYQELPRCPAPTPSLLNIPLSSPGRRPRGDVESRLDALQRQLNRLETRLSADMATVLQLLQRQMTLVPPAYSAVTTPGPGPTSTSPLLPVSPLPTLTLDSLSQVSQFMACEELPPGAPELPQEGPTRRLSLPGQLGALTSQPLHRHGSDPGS
human SSAO, sequence (Q16853 whole entry): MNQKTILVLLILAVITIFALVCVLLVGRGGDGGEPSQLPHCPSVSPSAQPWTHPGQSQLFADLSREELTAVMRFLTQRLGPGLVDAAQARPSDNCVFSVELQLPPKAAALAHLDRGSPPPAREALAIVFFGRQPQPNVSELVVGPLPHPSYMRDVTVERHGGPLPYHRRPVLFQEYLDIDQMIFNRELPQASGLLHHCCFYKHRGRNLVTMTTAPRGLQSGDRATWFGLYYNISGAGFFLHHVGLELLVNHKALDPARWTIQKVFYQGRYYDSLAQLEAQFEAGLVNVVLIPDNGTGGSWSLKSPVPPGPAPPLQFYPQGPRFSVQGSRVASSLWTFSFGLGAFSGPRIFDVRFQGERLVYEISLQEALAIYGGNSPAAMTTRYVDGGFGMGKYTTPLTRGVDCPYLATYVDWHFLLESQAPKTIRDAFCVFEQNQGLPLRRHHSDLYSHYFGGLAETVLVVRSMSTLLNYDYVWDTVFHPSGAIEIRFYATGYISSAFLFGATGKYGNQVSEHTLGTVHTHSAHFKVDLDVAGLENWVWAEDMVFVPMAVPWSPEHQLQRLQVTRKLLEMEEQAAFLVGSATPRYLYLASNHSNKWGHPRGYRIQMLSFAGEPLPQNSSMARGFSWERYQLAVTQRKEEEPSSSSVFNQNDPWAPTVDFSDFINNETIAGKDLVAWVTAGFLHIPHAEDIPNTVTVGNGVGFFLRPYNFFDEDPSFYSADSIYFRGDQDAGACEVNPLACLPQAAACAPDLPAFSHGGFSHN

Row | IC50 (human SSAO) [nM] | Structure (SMILES) | IC50 (hERG K+ channel; human, pH 7.3) [nM] | IC50 (hERG K+ channel) [nM]
1 | < 10 | NC(=O)N1CCC(c2c(-c3ccc(N)nc3)n(-c3ccc(Cl)cc3)c3cnccc23)CC1 [Example 1, 4-[2-(6-Aminopyridin-3-yl)-1-(4-chlorophenyl)-1H-pyrrolo[2,3-c]pyridin-3-yl]piperidine-1-carboxamide] | 1000 to 10000 | –
2 | 10 to 100 | NC(=O)N1CCC(c2c(-c3cccnc3)n(-c3ccc(Cl)cc3)c3cnccc23)CC1 [Example 2, 4-[1-(4-Chlorophenyl)-2-(pyridin-3-yl)-1H-pyrrolo[2,3-c]pyridin-3-yl]piperidine-1-carboxamide; formic acid] | 1000 to 10000 | –
3 | < 10 | COc1ccc(-c2c(C3CCN(C(N)=O)CC3)c3ccncc3n2-c2ccc(Cl)cc2)cn1 [Example 3, 4-[1-(4-Chlorophenyl)-2-(6-methoxypyridin-3-yl)-1H-pyrrolo[2,3-c]pyridin-3-yl]piperidine-1-carboxamide; formic acid] | – | –
4 | < 10 | COc1cc(-c2c(C3CCN(C(N)=O)CC3)c3ccncc3n2-c2ccc(Cl)cc2)ccn1 [Example 4, 4-[1-(4-Chlorophenyl)-2-(2-methoxypyridin-4-yl)-1H-pyrrolo[2,3-c]pyridin-3-yl]piperidine-1-carboxamide; formic acid] | – | 100 to 1000
5 | < 10 | CN1CCN(c2cc(-c3c(C4CCN(C(N)=O)CC4)c4ccncc4n3-c3ccc(Cl)cc3)ccn2)CC1 [Example 5, 4-[1-(4-Chlorophenyl)-2-[2-(4-methylpiperazin-1-yl)pyridin-4-yl]-1H-pyrrolo[2,3-c]pyridin-3-yl]piperidine-1-carboxamide; bis(formic acid)] | – | –
6 | < 10 | NC(=O)N1CCC(c2c(-c3ccc(N4CCOCC4)nc3)n(-c3ccc(Cl)cc3)c3cnccc23)CC1 [Example 6, 4-[1-(4-Chlorophenyl)-2-[6-(morpholin-4-yl)pyridin-3-yl]-1H-pyrrolo[2,3-c]pyridin-3-yl]piperidine-1-carboxamide] | – | –
7 | 10 to 100 | NC(=O)N1CCC(c2c(-c3cncnc3)n(-c3ccc(Cl)cc3)c3cnccc23)CC1 [Example 7, 4-[1-(4-Chlorophenyl)-2-(pyrimidin-5-yl)-1H-pyrrolo[2,3-c]pyridin-3-yl]piperidine-1-carboxamide] | 1000 to 10000 | –
8 | 10 to 100 | NC(=O)N1CCC(c2c(-c3cc[nH]n3)n(-c3ccc(Cl)cc3)c3cnccc23)CC1 [Example 8, 4-[1-(4-Chlorophenyl)-2-(1H-pyrazol-3-yl)-1H-pyrrolo[2,3-c]pyridin-3-yl]piperidine-1-carboxamide] | 1000 to 10000 | –
9 | < 10 | NC(=O)N1CCC(c2c(-c3cn[nH]c3)n(-c3ccc(Cl)cc3)c3cnccc23)CC1 [Example 9, 4-[1-(4-Chlorophenyl)-2-(1H-pyrazo1-4-yl)-1H-pyrrolo[2,3-c]pyridin-3-yl]piperidine-1-carboxamide] | – | > 10000
10 | < 10 | Cn1cc(-c2c(C3CCN(C(N)=O)CC3)c3ccncc3n2-c2ccc(Cl)cc2)cn1 [Example 10, 4-[1-(4-Chlorophenyl)-2-(1-methyl-1H-pyrazol-4-yl)-1H-pyrrolo[2,3-c]pyridin-3-yl]piperidine-1-carboxamide; trifluoroacetic acid] | – | –
11 | < 10 | Cn1nccc1-c1c(C2CCN(C(N)=O)CC2)c2ccncc2n1-c1ccc(Cl)cc1 [Example 11, 4-[1-(4-Chlorophenyl)-2-(1-methyl-1H-pyrazol-5-yl)-1H-pyrrolo[2,3-c]pyridin-3-yl]piperidine-1-carboxamide] | – | –
12 | < 10 | Cn1cncc1-c1c(C2CCN(C(N)=O)CC2)c2ccncc2n1-c1ccc(Cl)cc1 [Example 12, 4-[1-(4-Chlorophenyl)-2-(1-methyl-1H-imidazol-5-yl)-1H-pyrrolo[2,3-c]pyridin-3-yl]piperidine-1-carboxamide] | – | > 10000
13 | 10 to 100 | NC(=O)N1CCC(c2c(-n3ccnc3)n(-c3ccc(Cl)cc3)c3cnccc23)CC1 [Example 14, 4-[1-(4-Chlorophenyl)-2-(1H-imidazol-1-yl)-1H-pyrrolo[2,3-c]pyridin-3-yl]piperidine-1-carboxamide; bis(formic acid)] | – | > 10000
14 | 100 to 350 | NC(=O)N1CCC(c2c(-n3ccnn3)n(-c3ccc(Cl)cc3)c3cnccc23)CC1 [Example 15, 4-[1-(4-Chlorophenyl)-2-(1H-1,2,3-triazol-1-yl)-1H-pyrrolo[2,3-c]pyridin-3-yl]piperidine-1-carboxamide] | – | –
15 | 100 to 350 | NC(=O)N1CCC(c2c(-n3cncn3)n(-c3ccc(Cl)cc3)c3cnccc23)CC1 [Example 16, 4-[1-(4-Chlorophenyl)-2-(1H-1,2,4-triazol-1-yl)-1H-pyrrolo[2,3-c]pyridin-3-yl]piperidine-1-carboxamide] | – | –
16 | < 10 | Clc1ccc(-n2c(-c3ccncc3)c(C3CCNCC3)c3ccncc32)cc1 [Example 17, 4-[1-(4-Chlorophenyl)-3-(piperidin-4-yl)-1H-pyrrolo[2,3-c]pyridin-2-yl]pyridine] | 1000 to 10000 | –
17 | 10 to 100 | Nc1ccc(-c2c(C3CCNCC3)c3ccncc3n2-c2ccc(Cl)cc2)cn1 [Example 18, 5-[1-(4-Chlorophenyl)-3-(piperidin-4-yl)-1H-pyrrolo[2,3-c]pyridin-2-yl]pyridin-2-amine] | – | > 10000
18 | 10 to 100 | CN(C)Cc1c(-c2ccncc2)n(-c2ccc(Cl)cc2)c2cnccc12 [Example 19, {[1-(4-Chlorophenyl)-2-(pyridin-4-yl)-1H-pyrrolo[2,3-c]pyridin-3-yl]methyl}dimethyl amine] | 1000 to 10000 | –
19 | 100 to 350 | CN(C)Cc1c(-c2cccnc2)n(-c2ccc(Cl)cc2)c2cnccc12 [Example 20, {[1-(4-Chlorophenyl)-2-(pyridin-3-yl)-1H-pyrrolo[2,3-c]pyridin-3-yl]methyl}dimethyl amine] | – | –
20 | 100 to 350 | Clc1ccc(-n2c(-c3nn[nH]n3)c(C3CCNCC3)c3ccncc32)cc1 [Example 21, 4-[1-(4-Chlorophenyl)-2-(2H-1,2,3,4-tetrazol-5-yl)-1H-pyrrolo[2,3-c]pyridin-3-yl]piperidine; bis(trifluoroacetic acid)] | – | > 10000

Row | Structure (SMILES) | IC50 (human SSAO) [nM] | IC50 (hERG K+ channel; human, pH 7.3) [nM] | IC50 (hERG K+ channel) [nM]
21 | NC(=O)N1CCC(c2c(-n3cccn3)n(-c3ccc(Cl)cc3)c3cnccc23)CC1 [Example 13, 4-[1-(4-Chlorophenyl)-2-(1H-pyrazol-1-yl)-1H-pyrrolo[2,3-c]pyridin-3-yl]piperidine-1-carboxamide; formic acid] | 10 to 100 | 1000 to 10000 | –

From US9580415B2, “Compounds” (Proximagen Limited, priority 2013, dated 2017)
